≈ marks a conversion by molar mass, not a printed value. *1 amine or outer side, *2 acyl side, *3 side chain or, on linkers, in order; H or OH if unused. Where a SMILES comes first, the peptide text is derived from it. [ ]: non-standard residue; d: D form. The star is where a group is joined. X5 = CCCCCCCCCCCCCCCCCCC(=O)[C@H](CCC(=O)O)NC(=O)[C@H](CCC(=O)O)NC(=O)[C@H](CCC(=O)O)NC(=O)[C@H](CCCCN)NC(=O)COCC(=O)NCCCOCCOCCOCCCNC(=O)COCC(=O)NCCCOCCOCCOCCCNC(=O)COCC(=O)NCCCOCCOCCOCCCN*; PEG11 = NCCOCCOCCOCCOCCOCCOCCOCCOCCOCCOCCOCCC(=O)O; X3 = CCCCCCCCCCCCCCCCCCC(=O)[C@H](CCC(N)=O)N*; X6 = CCCCCCCCCCCCCCCCCCC(=O)[C@H](CCC(=O)O)N*; β2hAla(2S) = C[C@@H](CN[*:1])C(=O)[*:2]; hLys = NCCCCC[C@H](N)C(=O)O; Nle = CCCC[C@H](N)C(=O)O; AEEA = NCCOCCOCC(=O)O
Tests used:
[1] = Aqueous solubility of compound in acetate buffer at pH 4.5 measured after 24 hrs by UPLC analysis; assay type: physicochemical
[2] = Stability in human plasma assessed as parent compound remaining level at 5 uM remaining after 4 hrs; assay type: ADME, cell-free; conditions: read-out: Stabilty
[3] = Stability in rat plasma assessed as parent compound remaining level at 5 uM remaining after 4 hrs; assay type: ADME, cell-free; conditions: read-out: Stabilty
Relaxin receptor 1 [4] = biological target: T1, Relaxin receptor 1 (Homo sapiens, UniProt Q9HBX9); assay: Agonist activity at RXFP1 endogenously expressed in human OVCAR-5 cells assessed as increase in IBMX-induced cAMP accumulation pretreated with IBMX for 40 mins followed by compound addition and measured after 30 mins by HTRF assay; assay type: functional, cell-based
T1 sequence (Q9HBX9 whole entry): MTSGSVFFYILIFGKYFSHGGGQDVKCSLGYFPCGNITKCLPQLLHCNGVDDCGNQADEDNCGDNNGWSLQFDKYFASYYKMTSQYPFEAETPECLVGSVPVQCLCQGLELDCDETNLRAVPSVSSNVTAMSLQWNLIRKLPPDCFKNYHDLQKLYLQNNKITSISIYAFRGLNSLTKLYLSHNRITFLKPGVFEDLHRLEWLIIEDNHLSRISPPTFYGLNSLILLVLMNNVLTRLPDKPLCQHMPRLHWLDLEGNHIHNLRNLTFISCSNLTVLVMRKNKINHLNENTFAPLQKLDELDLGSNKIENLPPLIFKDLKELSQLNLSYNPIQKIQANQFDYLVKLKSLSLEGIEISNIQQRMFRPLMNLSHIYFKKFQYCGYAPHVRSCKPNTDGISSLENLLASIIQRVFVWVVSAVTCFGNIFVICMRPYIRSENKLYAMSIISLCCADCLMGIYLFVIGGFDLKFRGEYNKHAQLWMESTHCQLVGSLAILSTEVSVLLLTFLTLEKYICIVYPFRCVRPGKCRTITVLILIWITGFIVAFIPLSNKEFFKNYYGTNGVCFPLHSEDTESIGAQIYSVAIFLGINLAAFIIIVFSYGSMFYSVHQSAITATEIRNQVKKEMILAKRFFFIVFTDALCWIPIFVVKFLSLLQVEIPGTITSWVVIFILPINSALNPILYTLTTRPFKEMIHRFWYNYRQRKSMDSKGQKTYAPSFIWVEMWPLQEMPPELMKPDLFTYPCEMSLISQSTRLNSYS

[5] = biological target: T2, Relaxin receptor 1 (Homo sapiens) (UniProt Q9HBX9); assay: Agonist activity at RXFP1 endogenously expressed in human OVCAR-5 cells assessed as increase in IBMX-induced cAMP accumulation pretreated with IBMX for 40 mins followed by compound addition and measured after 30 mins by HTRF assay relative to relaxin; assay type: functional, cell-based; conditions: filed as agonist
T2 sequence (whole entry): T1 sequence (Q9HBX9 whole entry)

[6] = Aqueous solubility of compound in phosphate buffer at pH 7.4 measured after 24 hrs by UPLC analysis; assay type: physicochemical
[7] = biological target: T2, Relaxin receptor 1 (Homo sapiens); assay: Selectivity ratio of EC50 for agonist activity at RXFP1 endogenously expressed in human OVCAR-5 cells in presence of 2 % HSA to EC50 for agonist activity at RXFP1 endogenously expressed in human OVCAR-5 cells in absence of HSA; assay type: cell-based
[8] = biological target: T2, Relaxin receptor 1 (Homo sapiens); assay: Agonist activity at RXFP1 endogenously expressed in human OVCAR-5 cells assessed as increase in IBMX-induced cAMP accumulation pretreated with IBMX for 40 mins followed by compound addition and measured after 30 mins in presence of 2 % HSA by HTRF assay relative to control; assay type: functional, cell-based; conditions: filed as agonist
[9] = Half life in Sprague-Dawley rat at 1 mg/kg, iv measured upto 72 hrs by LC-HRMS analysis; assay type: ADME, organism-based; conditions: in vivo
Relaxin receptor 1 [10] = biological target: T1, Relaxin receptor 1; assay: Agonist activity at RXFP1 endogenously expressed in human OVCAR-5 cells assessed as increase in IBMX-induced cAMP accumulation pretreated with IBMX for 40 mins followed by compound addition and measured after 30 mins in presence of 2 % HSA by HTRF assay; assay type: functional, cell-based

SMILES	solubility at 24 h [1]	remaining at 4 h, 5 µM [2]	remaining at 4 h, 5 µM [3]	EC50 (Relaxin receptor 1 [4])	Emax [5]	solubility at 24 h [6]	Ratio EC50 [7]	Emax [8]	half-life [9]	EC50 (Relaxin receptor 1 [10])
CC[C@H](C)[C@H](NC(=O)[C@H](CCC(N)=O)NC(=O)[C@H](C)NC(=O)[C@H](CCCNC(=N)N)NC(=O)[C@@H](NC(=O)[C@H](CCCCN)NC(=O)[C@H](CCC(=O)O)NC(=O)[C@H](CCCNC(=N)N)NC(=O)CNC(=O)[C@H](CCC(=O)O)NC(=O)[C@H](CC(C)C)NC(C)=O)C(C)C)C(=O)NC[C@H](C)C(=O)NC[C@H](C)C(=O)N[C@@H](CCC(=O)O)C(=O)NCC(=O)N[C@@H](CCSC)C(=O)N[C@@H](CO)C(=O)N[C@H](C(=O)N[C@@H](Cc1c[nH]c2ccccc12)C(=O)N[C@@H](CO)C(=O)NC[C@H](C)C(=O)N[C@@H](CCCNC(=N)N)C(=O)N[C@@H](CCCCN)C(=O)N[C@@H](CCCCN)C(N)=O)[C@@H](C)O (Ac-LEGREKVRAQI[β2hAla(2S)][β2hAla(2S)]EGMSTWS[β2hAla(2S)]RKK-NH2)	6100 µg/mL (≈ 2190 µM)	93%	101%	14 nM	99%	5800 µg/mL (≈ 2080 µM)				
CC[C@H](C)[C@H](NC(=O)[C@H](CCC(N)=O)NC(=O)[C@H](C)NC(=O)[C@H](CCCNC(=N)N)NC(=O)[C@@H](NC(=O)[C@H](CCCCN)NC(=O)[C@H](CCC(=O)O)NC(=O)[C@H](CCCNC(=N)N)NC(=O)CNC(=O)[C@H](CCC(=O)O)NC(=O)[C@H](CC(C)C)NC(=O)[C@H](CCCCN)NC(=O)[C@@H](NC(=O)[C@@H](NC(C)=O)C(C)C)[C@@H](C)CC)C(C)C)C(=O)NC[C@H](C)C(=O)NC[C@H](C)C(=O)N[C@@H](CCC(=O)O)C(=O)NCC(=O)N[C@@H](CCSC)C(=O)N[C@@H](CO)C(=O)N[C@@H](CCCCN)C(=O)N[C@@H](Cc1c[nH]c2ccccc12)C(=O)N[C@@H](CO)C(=O)N[C@@H](CCCCN)C(=O)N[C@@H](CCCNC(=N)N)C(=O)N[C@@H](CCCCN)C(=O)N[C@@H](CCCCN)C(N)=O (HELM PEPTIDE1{[ac].V.I.K.L.E.G.R.E.K.V.R.A.Q.I.[C[C@@H](CN[*:1])C(=O)[*:2]].[C[C@@H](CN[*:1])C(=O)[*:2]].E.G.M.S.K.W.S.K.R.K.K.[am]}$$$$V2.0)	5100 µg/mL (≈ 1600 µM)	58%	37%	17 nM	99%	5300 µg/mL (≈ 1660 µM)				
CC[C@H](C)[C@H](NC[C@@H](C)CNC(=O)[C@@H](NC(=O)[C@H](CCC(N)=O)NC(=O)[C@H](C)NC(=O)[C@H](CCCNC(=N)N)NC(=O)[C@@H](NC(=O)[C@H](CCCCN)NC(=O)[C@H](CCC(=O)O)NC(=O)[C@H](CCCNC(=N)N)NC(=O)CNC(=O)[C@H](CCC(=O)O)NC(=O)[C@H](CC(C)C)NC(=O)[C@H](CCCCN)NC(=O)[C@@H](NC(=O)[C@@H](NC(C)=O)C(C)C)[C@@H](C)CC)C(C)C)[C@@H](C)CC)C(=O)N[C@@H](CCC(=O)O)C(=O)NCC(=O)N[C@@H](CCSC)C(=O)N[C@@H](CO)C(=O)N[C@@H](CCCCN)C(=O)N[C@@H](Cc1c[nH]c2ccccc12)C(=O)N[C@@H](CO)C(=O)N[C@@H](CCCCN)C(=O)N[C@@H](CCCNC(=N)N)C(=O)N[C@@H](CCCCN)C(=O)N[C@@H](CCCCN)C(N)=O	4800 µg/mL (≈ 1490 µM)	79%	29%	54 nM	95%	3800 µg/mL (≈ 1180 µM)				

Now those with a lower EC50 (Relaxin receptor 1 [4]), led by results:

solubility at 24 h [1]	remaining at 4 h, 5 µM [2]	remaining at 4 h, 5 µM [3]	EC50 (Relaxin receptor 1 [4])	Emax [5]	solubility at 24 h [6]	Ratio EC50 [7]	Emax [8]	half-life [9]	EC50 (Relaxin receptor 1 [10])	SMILES
	93%	80%	0.6 nM	95%	5400 µg/mL (≈ 1570 µM)	15	84%	43 h	9 nM	CCCCCCCCCCCCCCCCCCC(=O)[C@H](CCC(N)=O)NC(=O)[C@H](CCC(=O)O)NC(=O)[C@H](CCC(=O)O)NC(=O)[C@H](CCCCN)NC(=O)CCOCCOCCOCCOCCOCCOCCOCCOCCOCCOCCOCCNC(=O)[C@H](CCCCCNC(C)=O)NC(=O)[C@H](CCCCN)NC(=O)[C@@H](C)CNC(=O)[C@@H](C)CNC(=O)[C@@H](NC(=O)[C@H](CCCCCNC(C)=O)NC(=O)[C@H](CCCCN)NC(=O)[C@H](C)NC(=O)[C@H](CCCNC(=N)N)NC(=O)[C@@H](NC(=O)[C@H](CCCCN)NC(=O)[C@H](CCC(=O)O)NC(=O)[C@H](CCCNC(=N)N)NC(=O)[C@H](CCC(=O)O)NC(=O)CNC(=O)[C@H](CCC(=O)O)NC(=O)[C@H](CC(C)C)NC(C)=O)C(C)C)[C@@H](C)CC (Ac-LEGEREKVRAK[hLys](Ac)I[β2hAla(2S)][β2hAla(2S)]K[hLys](Ac)[PEG11]KEE-X3)
			0.4 nM	88%		61	85%	3.96 h	24.5 nM	CCCCCCCCCCCCCCCCCCC(=O)[C@H](CCC(=O)O)NC(=O)[C@H](CCC(=O)O)NC(=O)[C@H](CCC(=O)O)NC(=O)[C@H](CCCCN)NC(=O)COCC(=O)NCCCOCCOCCOCCCNC(=O)COCC(=O)NCCCOCCOCCOCCCNC(=O)COCC(=O)NCCCOCCOCCOCCCNC(=O)[C@H](CCCCCNC(C)=O)NC(=O)[C@H](CCCCN)NC(=O)[C@H](CCCCN)NC(=O)[C@H](CCCNC(=N)N)NC(=O)[C@@H](C)CNC(=O)[C@H](CO)NC(=O)[C@H](Cc1c[nH]c2ccccc12)NC(=O)[C@@H](NC(=O)[C@H](CO)NC(=O)[C@H](CCCCCNC(C)=O)NC(=O)[C@H](CCCCN)NC(=O)[C@H](CCCC)NC(=O)[C@H](CCSC)NC(=O)CNC(=O)[C@H](CCC(=O)O)NC(=O)[C@@H](C)CNC(=O)[C@@H](C)CNC(=O)[C@@H](NC(=O)[C@H](CCCCCNC(C)=O)NC(=O)[C@H](CCCCN)NC(=O)[C@H](C)NC(=O)[C@H](CCCNC(=N)N)NC(=O)[C@@H](NC(=O)[C@H](CCCCN)NC(=O)[C@H](CCC(=O)O)NC(=O)[C@H](CCCNC(=N)N)NC(=O)[C@H](CCC(=O)O)NC(=O)CNC(=O)[C@H](CCC(=O)O)NC(=O)[C@H](CC(C)C)NC(C)=O)C(C)C)[C@@H](C)CC)[C@@H](C)O (Ac-LEGEREKVRAK[hLys](Ac)I[β2hAla(2S)][β2hAla(2S)]EGM[Nle]K[hLys](Ac)STWS[β2hAla(2S)]RKK[hLys](Ac)-X5)
			0.1 nM	88%		198	82%	3.4 h	19.8 nM	CCCCCCCCCCCCCCCCCCC(=O)[C@H](CCC(=O)O)NC(=O)[C@H](CCC(=O)O)NC(=O)[C@H](CCC(=O)O)NC(=O)[C@H](CCCCN)NC(=O)COCCOCCNC(=O)COCCOCCNC(=O)COCCOCCNC(=O)[C@H](CCCCCNC(C)=O)NC(=O)[C@H](CCCCN)NC(=O)[C@H](CCCCN)NC(=O)[C@H](CCCNC(=N)N)NC(=O)[C@@H](C)CNC(=O)[C@H](CO)NC(=O)[C@H](Cc1c[nH]c2ccccc12)NC(=O)[C@@H](NC(=O)[C@H](CO)NC(=O)[C@H](CCCCCNC(C)=O)NC(=O)[C@H](CCCCN)NC(=O)[C@H](CCCC)NC(=O)[C@H](CCSC)NC(=O)CNC(=O)[C@H](CCC(=O)O)NC(=O)[C@@H](C)CNC(=O)[C@@H](C)CNC(=O)[C@@H](NC(=O)[C@H](CCCCCNC(C)=O)NC(=O)[C@H](CCCCN)NC(=O)[C@H](C)NC(=O)[C@H](CCCNC(=N)N)NC(=O)[C@@H](NC(=O)[C@H](CCCCN)NC(=O)[C@H](CCC(=O)O)NC(=O)[C@H](CCCNC(=N)N)NC(=O)[C@H](CCC(=O)O)NC(=O)CNC(=O)[C@H](CCC(=O)O)NC(=O)[C@H](CC(C)C)NC(C)=O)C(C)C)[C@@H](C)CC)[C@@H](C)O (Ac-LEGEREKVRAK[hLys](Ac)I[β2hAla(2S)][β2hAla(2S)]EGM[Nle]K[hLys](Ac)STWS[β2hAla(2S)]RKK[hLys](Ac)[AEEA][AEEA][AEEA]KEE-X6)
